# From PubChem BioAssay AID1208 (EPA DSSTox, 2008)
# Activity calls are given as the source filed them.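 How the source made its calls: active means at least one rat sex group has a carcinogenic potency value and tumor site recorded; inconclusive means only rat studies were judged inadequate by the national testing program; inactive means no potency or tumor site, with negative rat experiments.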
# Tested on: rat chronic carcinogenicity bioassay, TD50
# Assay: DSSTox (CPDBAS) Carcinogenic Potency Database Summary Rat Bioassay Results
# Details: for Potency: stronger effect = lower value
# Summary of the method: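 Chronic long-term rat cancer bioassays from literature and NCI/NTP, taking the most positive result per sex. TD50 in mmol converted to a 1–100 Activity Score from log10(1/TD50). Mixtures lacking TD50 scored 50.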
# [1] = TD50_Rat_Note: no positive results, TargetSites_Rat_Female: no positive results
# [2] = TD50_Rat_Note: TD50 is harmonic mean of more than one positive test, TargetSites_Rat_Female: liver
# [3] = TD50_Rat_Note: only experiment is NCI/NTP bioassay inadequate, TargetSites_Rat_Female: NTP bioassay inadequate
# [4] = TD50_Rat_Note: no positive results
# [5] = TD50_Rat_Note: no positive results, TargetSites_Rat_BothSexes: no positive results
# [6] = TargetSites_Rat_Female: mammary gland
# [7] = TD50_Rat_Note: positive test results only by intraperitoneal or intravenous injection
structure (smiles),measurement,setting,value
CCCN(N=O)C(N)=O,Potency,"TD50_Rat_Note: TD50 is harmonic mean of more than one positive test, harmonic mean of TD50 includes a value for upper 99% confidence li, TargetSites_Rat_Female: hematopoietic system",3.77 mg/kg/day
O=C(O)c1[nH]n(-c2ccc(S(=O)(=O)O)cc2)c(=O)c1N=Nc1ccc(S(=O)(=O)O)cc1,outcome,[1],inactive; no positive results
O=NN1CCCC1c1cccnc1 (stereo not given),Potency,,0.0957 mg/kg/day
CCOP(=S)(OCC)SC1OCCOC1SP(=S)(OCC)OCC (stereo not given),outcome,[1],inactive; no positive results
C/C=C(/C)C(=O)O[C@H]1CCN2CC=C(COC(=O)[C@](O)([C@H](C)OC)C(C)(C)O)[C@H]12,Potency,"TD50_Rat_Note: TD50 is harmonic mean of more than one positive test, TargetSites_Rat_Female: hematopoietic system, liver, vascular system",0.389 mg/kg/day
CN(C)c1ccc(C(=O)c2ccc(N(C)C)cc2)cc1,Potency,[2],5.64 mg/kg/day
N#CS,outcome,[1],inactive; no positive results
CCN(CC)C(=O)/C(Cl)=C(\C)OP(=O)(OC)OC,outcome,[3],ntp bioassay inadequate
C/C=C1/C[C@@H](C)[C@](O)(CO)C(=O)OCC2=CC[N+]3([O-])CC[C@@H](OC1=O)[C@@H]23 (stereo not given in full),Potency,[2],0.716 mg/kg/day
CCCCC1(COC(=O)CCC(=O)O)C(=O)N(c2ccccc2)N(c2ccccc2)C1=O,outcome,[1],inactive; no positive results
CN(N=O)C(=O)c1ccccc1C(=O)N(C)N=O,outcome,[4],inactive; no positive results
O=S(=O)(O)c1ccc(N=Nc2c(O)ccc3cc(S(=O)(=O)O)ccc23)cc1,outcome,[1],inactive; no positive results
COC(=O)C(c1ccccc1)C1CCCCN1 (stereo not given),outcome,[1],inactive; no positive results
COc1cc(NC(=O)C(N=Nc2ccc(-c3ccc(N=NC(C(C)=O)C(=O)Nc4cc(OC)c(Cl)cc4OC)c(Cl)c3)cc2Cl)C(C)=O)c(OC)cc1Cl (stereo not given),outcome,[5],inactive
O=C(O)[C@@H]1[C@H](C(=O)O)[C@@]2(Cl)C(Cl)=C(Cl)[C@]1(Cl)C2(Cl)Cl,Potency,[2],40.8 mg/kg/day
C=CCCl,outcome,[3],ntp bioassay inadequate
Nc1ccccc1C(=O)O,outcome,[1],inactive; no positive results
CC(=O)Oc1c(C)c(C)c2c(c1C)CCC(C)(CCCC(C)CCCC(C)CCCC(C)C)O2 (stereo not given),outcome,[1],inactive; no positive results
Nc1ccc2nc3ccccn3c2n1,Potency,"TD50_Rat_Note: TD50 is harmonic mean of more than one positive test, TargetSites_Rat_Female: clitoral gland, ear Zymbals gland, large intestine, liver, small intestine",42.3 mg/kg/day
Oc1ccc(O)cc1,Potency,"TD50_Rat_Note: TD50 is harmonic mean of more than one positive test, TargetSites_Rat_Female: hematopoietic system",82.8 mg/kg/day
Cc1ncc([N+](=O)[O-])n1C,Potency,[6],17 mg/kg/day
Oc1c(Cl)cc(Cl)c(Cl)c1Cc1c(O)c(Cl)cc(Cl)c1Cl,outcome,[1],inactive; no positive results
O=[N+]([O-])c1c(Cl)c(Cl)c(Cl)c(Cl)c1Cl,outcome,[1],inactive; no positive results
CCCCCC,outcome,[1],inactive; no positive results
Cc1ccc(Cl)cc1N,outcome,[1],inactive; no positive results
ClC1=C(Cl)[C@]2(Cl)[C@@H]3[C@H]4C[C@H]([C@@H]5O[C@H]45)[C@@H]3[C@@]1(Cl)C2(Cl)Cl,outcome,[1],inactive; no positive results
CCN(Cc1cccc(S(=O)(=O)O)c1)c1ccc(C(=C2C=CC(=[N+](CC)Cc3cccc(S(=O)(=O)O)c3)C=C2)c2ccccc2S(=O)(=O)[O-])cc1,outcome,[5],inactive
C=CC1=C(C)C2=CC3=NC(=C(CC(=O)[O-])C4=NC(=C(C)C4=C([O-])[O-])C=c4[n-]c(c(C)c4CC)=CC1=N2)[C@@H](CCC(=O)[O-])[C@@H]3C.[Cu+2].[Na+].[Na+].[Na+],outcome,[1],inactive; no positive results
N/C(=N\O)c1ccc([N+](=O)[O-])o1,outcome,[1],inactive
O=C1c2ccccc2C(=O)c2c(O)c(O)cc(O)c21,Potency,,678 mg/kg/day
CC(C)=CCC/C(C)=C/C=O,outcome,[1],inactive; no positive results
Nc1c(Br)cc(Br)c2c1C(=O)c1ccccc1C2=O,Potency,"TD50_Rat_Note: TD50 is harmonic mean of more than one positive test, TargetSites_Rat_Female: kidney, large intestine, liver, urinary bladder",46 mg/kg/day
CC(C)NCC(O)c1ccc(NS(C)(=O)=O)cc1 (stereo not given),outcome,[1],inactive; no positive results
CC(O)CN(CC(C)O)N=O (stereo not given),Potency,"TD50_Rat_Note: TD50 is harmonic mean of more than one positive test, TargetSites_Rat_Female: esophagus, nasal cavity",0.846 mg/kg/day
N[C@@H](Cc1ccc(N(CCCl)CCCl)cc1)C(=O)O,Potency,"TD50_Rat_Note: positive test results only by intraperitoneal or intravenous injection, TD50 is harmonic mean of more than one positive, TargetSites_Rat_Female: peritoneal cavity",0.0938 mg/kg/day
CCN(N=O)C(=O)NCC(C)=O,Potency,"TD50_Rat_Note: TD50 is harmonic mean of more than one positive test, harmonic mean of TD50 includes a value for upper 99% confidence li, TargetSites_Rat_Female: large intestine, lung, mammary gland, nervous system, skin, thyroid gland, uterus",0.181 mg/kg/day
COC(=O)[C@H]1[C@H]2C[C@@H]3c4[nH]c5ccccc5c4CCN3C[C@H]2C[C@@H](OC(=O)c2cc(OC)c(OC)c(OC)c2)[C@@H]1OC,outcome,[5],inactive
Nc1ccc(-c2ccccc2)cc1,Potency,[6],0.98 mg/kg/day
CNCc1ccc(CSCCNC(=NCC(O)c2ccc(O)cc2)NS(C)(=O)=O)o1 (stereo not given),outcome,[1],inactive; no positive results
O=NN1CC=CCO1,Potency,TargetSites_Rat_BothSexes: all tumor bearing animals,90.6 mg/kg/day
NC(N)=O,outcome,[1],inactive; no positive results
CCN(CC)C(=O)c1cccc(C)c1,outcome,[1],inactive; no positive results
CC1(C)[C@@H](O)CC[C@]2(C)[C@H]3C(=O)C=C4[C@@H]5C[C@@](C)(C(=O)O)CC[C@]5(C)CC[C@@]4(C)[C@]3(C)CC[C@@H]12,outcome,[4],inactive; no positive results
Oc1ccc(Cl)cc1Cc1ccccc1,outcome,[1],inactive; no positive results
N[C@@H](CCC(=O)O)C(=O)O,outcome,[1],inactive; no positive results
CN(C)c1ccc(Cc2ccc(N(C)C)cc2)cc1,Potency,"TD50_Rat_Note: TD50 is harmonic mean of more than one positive test, TargetSites_Rat_Female: thyroid gland",16.4 mg/kg/day
O=[N+]([O-])c1ccc(Oc2ccc(Cl)cc2Cl)cc1,Potency,TargetSites_Rat_Female: pancreas,420 mg/kg/day
CNC(=S)N(C)C,Potency,TargetSites_Rat_Female: thyroid gland,25.8 mg/kg/day
CN(N=O)C(=O)c1c(N(C)N=O)ncn1C,Potency,TargetSites_Rat_BothSexes: stomach,0.183 mg/kg/day
CCN(CC)C(=S)SSC(=S)N(CC)CC,outcome,[1],inactive; no positive results
CC(=O)OC[C@H]1O[C@H](O[C@]2(COC(C)=O)O[C@H](COC(=O)C(C)C)[C@@H](OC(=O)C(C)C)[C@@H]2OC(=O)C(C)C)[C@H](OC(=O)C(C)C)[C@@H](OC(=O)C(C)C)[C@@H]1OC(=O)C(C)C,outcome,[1],inactive; no positive results
ClC(Cl)C(Cl)Cl,outcome,[1],inactive; no positive results
CCCCCN(N=O)C(=N)N[N+](=O)[O-],outcome,[4],inactive; no positive results
Cc1ccc(OP(=O)(Oc2ccc(C)cc2)Oc2ccc(C)cc2)cc1,outcome,[1],inactive; no positive results
NCC(=O)O,Potency,TargetSites_Rat_Female: kidney,25700 mg/kg/day
Cc1ccc(-c2cc(C(F)(F)F)nn2-c2ccc(S(N)(=O)=O)cc2)cc1,outcome,[4],inactive; no positive results
CCNc1nc(Cl)nc(NC(C)(C)C#N)n1,Potency,[6],6.33 mg/kg/day
NC(N)=NC(N)=NCCc1ccccc1,outcome,[1],inactive; no positive results
c1ccc(C2CO2)cc1 (stereo not given),Potency,"TD50_Rat_Note: TD50 is harmonic mean of more than one positive test, TargetSites_Rat_Female: stomach",55.4 mg/kg/day
Cc1cnc2ccc3c(nc(N)n3C)c2n1,Potency,"TD50_Rat_Note: TD50 is harmonic mean of more than one positive test, TargetSites_Rat_Female: clitoral gland, ear Zymbals gland, liver",1.66 mg/kg/day
O=C1C=C(N2CC2)C(=O)C(N2CC2)=C1N1CC1,Potency,[7],0.00504 mg/kg/day
O=NN1CCC(=O)NC1=O,Potency,[2],0.0983 mg/kg/day
COc1c(Cl)c(Cl)c([N+](=O)[O-])c(Cl)c1Cl,outcome,[1],inactive; no positive results
ClCc1cccnc1,Potency,TargetSites_Rat_Female: no positive results,433 mg/kg/day
CC(C)OC(=O)Nc1cccc(Cl)c1,outcome,[1],inactive; no positive results
CNC(=O)O/N=C/C(C)(C)SC,outcome,[1],inactive; no positive results
O=S(=O)([O-])[O-].[Cd+2],Potency,"TD50_Rat_Note: TD50 is harmonic mean of more than one positive test, TargetSites_Rat_Female: lung",0.0217 mg/kg/day
c1ccc2c(c1)Oc1ccccc1O2,outcome,[1],inactive; no positive results
C[C@@H]1C[C@H]2[C@@H]3CCC4=CC(=O)C=C[C@]4(C)[C@@]3(F)[C@@H](O)C[C@]2(C)[C@@]1(O)C(=O)CO,outcome,[4],inactive; no positive results
CC(O)CN(CC(O)CO)N=O (stereo not given),Potency,"TargetSites_Rat_Female: esophagus, oral cavity, stomach",0.0535 mg/kg/day
O=NN(CCO)CC(O)CO (stereo not given),Potency,TargetSites_Rat_Female: liver,5.98 mg/kg/day
Cc1ccc(O)c(O)c1,Potency,"TD50_Rat_Note: TD50 is harmonic mean of more than one positive test, harmonic mean of TD50 includes a value for upper 99% confidence li, TargetSites_Rat_Female: stomach",248 mg/kg/day
NC1=NCN([C@@H]2O[C@H](CO)[C@@H](O)[C@H]2O)C(=O)N1,outcome,[4],inactive; no positive results
Cc1cnc(NC(=O)C2=C(O)c3ccccc3S(=O)(=O)N2C)s1,outcome,[1],inactive; no positive results
C1CO1,Potency,"TD50_Rat_Note: TD50 is harmonic mean of more than one positive test, greater than ten-fold variation among TD50 values for positive res, TargetSites_Rat_Female: nervous system, stomach",21.3 mg/kg/day
COc1cc(-c2ccc(N)c(OC)c2)ccc1N,Potency,"TD50_Rat_Note: TD50 is harmonic mean of more than one positive test, TargetSites_Rat_Female: clitoral gland, ear Zymbals gland, large intestine, liver, mammary gland, oral cavity, skin, uterus",1.04 mg/kg/day
O=c1[nH]nc(-c2ccc([N+](=O)[O-])o2)o1,Potency,TargetSites_Rat_Female: all tumor bearing animals,8.61 mg/kg/day
C/C=C(\C)C(=O)O[C@@H]1CCN2CC=C(COC(=O)C(O)(C(C)C)C(C)O)[C@H]12 (stereo not given in full),Potency,[7],1.91 mg/kg/day
C=COC(C)=O,Potency,"TD50_Rat_Note: TD50 is harmonic mean of more than one positive test, greater than ten-fold variation among TD50 values for positive res, TargetSites_Rat_Female: liver, nasal cavity, thyroid gland, uterus",341 mg/kg/day
O=CCCCC=O,outcome,[1],inactive; no positive results
